The subject of data set [1] is Coxiella burnetii. Nature of the data set: Antimicrobial activity against compound-susceptible Coxiella burnetii Nine-Mile obtained from patient with acute Q fever infected in african green monkey Vero cells after 24 hrs by shell vial assay. In kind it is functional.
Data set [2] deals with Coxiella burnetii. The experiment in a line: Antimicrobial activity against compound-intermediate susceptible Coxiella burnetii Q212 obtained from patient with acute Q fever infected in african green monkey Vero cells after 24 hrs by shell vial assay. In kind it is functional. Particulars: Q212, 24 h.
For data set [3], the system named is Coxiella burnetii. Nature of the data set: Antimicrobial activity against compound-intermediate susceptible Coxiella burnetii isolate CP1 obtained from patient with acute Q fever infected in african green monkey Vero cells after 24 hrs by shell vial assay. In kind it is functional. Conditions: isolate CP1, 24 h.
For data set [4], the system named is Coxiella burnetii. Nature of the data set: Antimicrobial activity against compound-susceptible Coxiella burnetii isolate CP2 obtained from patient with acute Q fever infected in african green monkey Vero cells after 24 hrs by shell vial assay. In kind it is functional. Particulars: isolate CP2, 24 h.
The subject of data set [5] is Coxiella burnetii. The experiment in a line: Antimicrobial activity against compound-susceptible Coxiella burnetii isolate CP3 obtained from patient with acute Q fever infected in african green monkey Vero cells after 24 hrs by shell vial assay. In kind it is functional. Conditions: isolate CP3, 24 h.
In data set [6] the test system is Coxiella burnetii. The experiment in a line: Antimicrobial activity against compound-susceptible Coxiella burnetii isolate CP4 obtained from patient with acute Q fever infected in african green monkey Vero cells after 24 hrs by shell vial assay. Conditions: isolate CP4, 24 h. Type of data set: functional.
Data set [7] has as its system Coxiella burnetii. The experiment in a line: Antimicrobial activity against compound-susceptible Coxiella burnetii isolate CP5 obtained from patient with acute Q fever infected in african green monkey Vero cells after 24 hrs by shell vial assay. Type of data set: functional. Particulars: isolate CP5, 24 h.
Data set [8] has as its system Coxiella burnetii. Nature of the data set: Antimicrobial activity against compound-susceptible Coxiella burnetii isolate CP6 obtained from patient with acute Q fever infected in african green monkey Vero cells after 24 hrs by shell vial assay. Particulars: isolate CP6, 24 h. Type of data set: functional.
The test system of data set [9] is Coxiella burnetii. The experiment in a line: Antimicrobial activity against compound-susceptible Coxiella burnetii isolate CP7 obtained from patient with acute Q fever infected in african green monkey Vero cells after 24 hrs by shell vial assay. Conditions: isolate CP7, 24 h. Type of data set: functional.
In data set [10] the test system is Coxiella burnetii. Nature of the data set: Antimicrobial activity against compound-susceptible Coxiella burnetii isolate CP8 obtained from patient with acute Q fever infected in african green monkey Vero cells after 24 hrs by shell vial assay. In kind it is functional. Particulars: isolate CP8, 24 h.
In data set [11] the test system is Coxiella burnetii. Nature of the data set: Antimicrobial activity against compound-susceptible Coxiella burnetii Q212 obtained from patient with acute Q fever infected in african green monkey Vero cells after 24 hrs by shell vial assay. Type of data set: functional. Conditions: Q212, 24 h.
Data set [12] relates to Coxiella burnetii. Nature of the data set: Antimicrobial activity against compound-susceptible Coxiella burnetii isolate CP1 obtained from patient with acute Q fever infected in african green monkey Vero cells after 24 hrs by shell vial assay. Particulars: isolate CP1, 24 h. In kind it is functional.
Data set [13] relates to Coxiella burnetii. The experiment in a line: Antimicrobial activity against compound-intermediate susceptible Coxiella burnetii isolate CP4 obtained from patient with acute Q fever infected in african green monkey Vero cells after 24 hrs by shell vial assay. Type of data set: functional. Conditions: isolate CP4, 24 h.
A further data set deals with Vero. The experiment in a line: Cytotoxicity against african green monkey Vero cells at 4 ug/ml. Particulars: chlorocebus sabaeus. In kind it is cell-based.

Converted amounts (≈) assume the structure as drawn.

As a reminder, the MIC is the least concentration at which growth counts as inhibited. With `O=C(O)c1cn(C2CC2)c2cc(N3CCNCC3)c(F)cc2c1=O` [CIPROFLOXACIN], the MIC with Coxiella burnetii [1], in the data set with Coxiella burnetii [2], with Coxiella burnetii [3], against Coxiella burnetii [4], in the data set with Coxiella burnetii [5] and against Coxiella burnetii [6] was 4 µg/mL (≈ 12.1 µM) in each case. In addition, the MIC against Coxiella burnetii [7], against Coxiella burnetii [8], against Coxiella burnetii [9] and with Coxiella burnetii [10] was 4 µg/mL (≈ 12.1 µM) throughout.

With `CC[C@H]1OC(=O)[C@H](C)[C@@H](O[C@H]2C[C@@](C)(OC)[C@@H](O)[C@H](C)O2)[C@H](C)[C@@H](O[C@@H]2O[C@H](C)C[C@H](N(C)C)[C@H]2O)[C@](C)(OC)C[C@@H](C)C(=O)[C@H](C)[C@@H](O)[C@]1(C)O` [CLARITHROMYCIN], the MIC in the data set with Coxiella burnetii [1] stood at 2 µg/mL (≈ 2.67 µM); against Coxiella burnetii [2], 2 µg/mL (≈ 2.67 µM); in the data set with Coxiella burnetii [11] it was 4 µg/mL (≈ 5.35 µM); with Coxiella burnetii [3], 2 µg/mL (≈ 2.67 µM); against Coxiella burnetii [12] it was 4 µg/mL (≈ 5.35 µM); against Coxiella burnetii [4] it was 2 µg/mL (≈ 2.67 µM). Besides, the MIC against Coxiella burnetii [5], in the data set with Coxiella burnetii [6], in the data set on Coxiella burnetii [7], against Coxiella burnetii [8], in the data set on Coxiella burnetii [9] and in the data set with Coxiella burnetii [10] was 2 µg/mL (≈ 2.67 µM) each time.

Take `C[C@H]1c2cccc(O)c2C(=O)C2=C(O)[C@]3(O)C(=O)C(C(N)=O)=C(O)[C@@H](N(C)C)[C@@H]3[C@@H](O)[C@@H]21.O` [DOXYCYCLINE]: the MIC in the data set with Coxiella burnetii [1] turned out to be 1 µg/mL; with Coxiella burnetii [2], 1 µg/mL; in the data set on Coxiella burnetii [11] it was 2 µg/mL; in the data set on Coxiella burnetii [3], 1 µg/mL; with Coxiella burnetii [12], 2 µg/mL; with Coxiella burnetii [4] it was 1 µg/mL. Further, the minimal inhibitory concentration (MIC) against Coxiella burnetii [5] is 1 µg/mL; in the data set with Coxiella burnetii [13], 1 µg/mL; in the data set with Coxiella burnetii [6], 2 µg/mL; in the data set on Coxiella burnetii [7], 1 µg/mL; against Coxiella burnetii [8], 1 µg/mL; against Coxiella burnetii [9] it was 1 µg/mL. In the data set with Coxiella burnetii [10], the MIC came to 1 µg/mL.

As for `CC(=O)NC[C@H]1CN(c2ccc(N3CCOCC3)c(F)c2)C(=O)O1` [LINEZOLID], the MIC amounted to 2 µg/mL (≈ 5.93 µM) against Coxiella burnetii [1]; 2 µg/mL (≈ 5.93 µM) against Coxiella burnetii [2]; 4 µg/mL (≈ 11.9 µM) in the data set on Coxiella burnetii [11]; 2 µg/mL (≈ 5.93 µM) against Coxiella burnetii [3]; 4 µg/mL (≈ 11.9 µM) with Coxiella burnetii [12]; 2 µg/mL (≈ 5.93 µM) in the data set with Coxiella burnetii [4]. Also, the MIC with Coxiella burnetii [5], with Coxiella burnetii [6], with Coxiella burnetii [7], in the data set with Coxiella burnetii [8], in the data set on Coxiella burnetii [9] and in the data set on Coxiella burnetii [10] was 2 µg/mL (≈ 5.93 µM) each time.

Regarding `CC1COc2c(N3CCN(C)CC3)c(F)cc3c(=O)c(C(=O)O)cn1c23` (centres undefined) [OFLOXACIN], the MIC with Coxiella burnetii [1] was 1 µg/mL (≈ 2.77 µM); against Coxiella burnetii [2], 1 µg/mL (≈ 2.77 µM); in the data set with Coxiella burnetii [11], 2 µg/mL (≈ 5.53 µM); in the data set with Coxiella burnetii [3] it was 1 µg/mL (≈ 2.77 µM); against Coxiella burnetii [12] it was 2 µg/mL (≈ 5.53 µM); in the data set on Coxiella burnetii [4], 1 µg/mL (≈ 2.77 µM). Besides, the minimum inhibitory concentration (MIC) against Coxiella burnetii [5], with Coxiella burnetii [6], against Coxiella burnetii [7], in the data set with Coxiella burnetii [8], against Coxiella burnetii [9] and with Coxiella burnetii [10] was 1 µg/mL (≈ 2.77 µM) each time.

Regarding `CN(C)c1cc(NC(=O)CNC(C)(C)C)c(O)c2c1C[C@H]1C[C@H]3[C@H](N(C)C)C(O)=C(C(N)=O)C(=O)[C@@]3(O)C(O)=C1C2=O` [TIGECYCLINE], the MIC against Coxiella burnetii [1] was 0.25 µg/mL (≈ 0.427 µM); against Coxiella burnetii [2], 0.25 µg/mL (≈ 0.427 µM); in the data set on Coxiella burnetii [11], 0.5 µg/mL (≈ 0.854 µM); in the data set with Coxiella burnetii [3], 0.25 µg/mL (≈ 0.427 µM); against Coxiella burnetii [12] it was 0.5 µg/mL (≈ 0.854 µM); in the data set with Coxiella burnetii [4], 0.25 µg/mL (≈ 0.427 µM). In addition, the MIC in the data set with Coxiella burnetii [5], against Coxiella burnetii [6], against Coxiella burnetii [7], with Coxiella burnetii [8], in the data set on Coxiella burnetii [9] and against Coxiella burnetii [10] was 0.25 µg/mL (≈ 0.427 µM) each time. For the same molecule, the Activity entry with Vero is recorded as “Non-toxic”.

On to `N[C@@H]1[C@H]2CN(c3nc4c(cc3F)c(=O)c(C(=O)O)cn4-c3ccc(F)cc3F)C[C@@H]12` [TROVAFLOXACIN], for which the MIC against Coxiella burnetii [1] amounted to 1 µg/mL (≈ 2.4 µM); against Coxiella burnetii [2], 1 µg/mL (≈ 2.4 µM); in the data set with Coxiella burnetii [11] it was 2 µg/mL (≈ 4.8 µM); in the data set on Coxiella burnetii [3] it was 1 µg/mL (≈ 2.4 µM); against Coxiella burnetii [12] it was 2 µg/mL (≈ 4.8 µM); in the data set on Coxiella burnetii [4] it was 1 µg/mL (≈ 2.4 µM). The MIC against Coxiella burnetii [5], with Coxiella burnetii [6], in the data set on Coxiella burnetii [7], against Coxiella burnetii [8], in the data set on Coxiella burnetii [9] and against Coxiella burnetii [10] was 1 µg/mL (≈ 2.4 µM) each time.

(Values after ChEMBL document CHEMBL1649456 (Antimicrob Agents Chemother, 2009).)
